Test results from article PMC5078040 (Oncotarget, 2016).

Tests used:
[1] = biological target: T1, PAK1 (Homo sapiens, UniProt Q13153); assay: KinomeScan; format: binding; settings: 1uM
T1 construct: purchased DiscoveRx KINOMEscan

[2] = biological target: T2, IRAK4 (Homo sapiens, UniProt Q9NWZ3); assay: KinomeScan; format: binding; settings: 1uM
T2 construct: purchased DiscoveRx KINOMEscan

[3] = biological target: T3, KIT(D816V) (Homo sapiens, UniProt P10721, D816V); assay: KinomeScan; format: binding; settings: 1uM
T3 construct: purchased DiscoveRx KINOMEscan
T3 sequence (P10721 26-976 D816V): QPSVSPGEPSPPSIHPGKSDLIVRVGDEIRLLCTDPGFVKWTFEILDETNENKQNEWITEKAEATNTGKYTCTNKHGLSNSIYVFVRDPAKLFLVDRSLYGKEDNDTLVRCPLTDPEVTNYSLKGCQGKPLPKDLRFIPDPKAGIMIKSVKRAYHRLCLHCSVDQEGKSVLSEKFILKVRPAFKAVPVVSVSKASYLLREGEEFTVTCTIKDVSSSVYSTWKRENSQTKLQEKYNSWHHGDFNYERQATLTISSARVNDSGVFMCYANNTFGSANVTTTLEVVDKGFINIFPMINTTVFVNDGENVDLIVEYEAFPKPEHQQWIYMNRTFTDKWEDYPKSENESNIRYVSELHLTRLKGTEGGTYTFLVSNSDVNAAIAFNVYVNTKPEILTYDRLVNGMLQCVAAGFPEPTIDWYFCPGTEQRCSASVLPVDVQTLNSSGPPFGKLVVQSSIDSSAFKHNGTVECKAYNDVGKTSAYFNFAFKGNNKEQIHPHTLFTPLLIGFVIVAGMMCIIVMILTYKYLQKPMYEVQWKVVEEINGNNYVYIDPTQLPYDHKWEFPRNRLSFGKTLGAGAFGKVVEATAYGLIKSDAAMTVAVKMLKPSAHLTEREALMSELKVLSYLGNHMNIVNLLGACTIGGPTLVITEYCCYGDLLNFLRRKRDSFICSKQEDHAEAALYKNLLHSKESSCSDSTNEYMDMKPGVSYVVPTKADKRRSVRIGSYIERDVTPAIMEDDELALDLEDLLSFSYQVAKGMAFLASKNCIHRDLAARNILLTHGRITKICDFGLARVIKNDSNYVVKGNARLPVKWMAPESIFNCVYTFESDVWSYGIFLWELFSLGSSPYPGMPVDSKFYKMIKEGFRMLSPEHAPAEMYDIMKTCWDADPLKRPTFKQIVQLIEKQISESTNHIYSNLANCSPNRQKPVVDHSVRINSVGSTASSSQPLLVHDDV

[4] = biological target: T4, DAPK2 (Homo sapiens, UniProt Q9UIK4); assay: KinomeScan; format: binding; settings: 1uM
T4 construct: purchased DiscoveRx KINOMEscan

[5] = biological target: T5, EGFR (Homo sapiens, UniProt P00533); assay: KinomeScan; format: binding; settings: 1uM
T5 construct: purchased DiscoveRx KINOMEscan

[6] = biological target: T6, CSNK2A1 (Homo sapiens, UniProt P68400); assay: KinomeScan; format: binding; settings: 1uM
T6 construct: purchased DiscoveRx KINOMEscan

[7] = system: phosphorylation of Akt at both Thr308 and Ser473; assay: Signaling pathway effect examination (western blotting); format: cell-based, human; settings: 1 hour
Protocol: (§1) The cells were collected and lysed, and cell lysates were analyzed by western blotting.

[8] = system: Erk phosphorylation; assay: as above; format: cell-based, human
Protocol: as §1

[9] = biological target: T7, CAMK2B (Homo sapiens, UniProt Q13554); assay: KinomeScan; format: binding; settings: 1uM
T7 construct: purchased DiscoveRx KINOMEscan

[10] = biological target: T8, PLK4 (Homo sapiens, UniProt O00444); assay: KinomeScan; format: binding; settings: 1uM
T8 construct: purchased DiscoveRx KINOMEscan

[11] = biological target: T9, PRP4 (Homo sapiens, UniProt Q13523); assay: KinomeScan; format: binding; settings: 1uM
T9 construct: purchased DiscoveRx KINOMEscan

[12] = biological target: T10, TEC (Homo sapiens, UniProt P42680); assay: KinomeScan; format: binding; settings: 1uM
T10 construct: purchased DiscoveRx KINOMEscan

[13] = system: EGFR(L747-T751del,Sins); assay: KinomeScan; format: binding; settings: 1uM
[14] = biological target: T11, FLT3(R834Q) (Homo sapiens, UniProt P36888, R834Q); assay: KinomeScan; format: binding; settings: 1uM
T11 construct: purchased DiscoveRx KINOMEscan

[15] = biological target: T12, PKN1 (Homo sapiens, UniProt Q16512); assay: KinomeScan; format: binding; settings: 1uM
T12 construct: purchased DiscoveRx KINOMEscan

[16] = biological target: T13, JAK3(JH1domain-catalytic) (Homo sapiens, UniProt P52333); assay: KinomeScan; format: binding; settings: 1uM
T13 construct: JAK3(JH1domain-catalytic); purchased DiscoveRx KINOMEscan

[17] = biological target: T14, MARK4 (Homo sapiens, UniProt Q96L34); assay: KinomeScan; format: binding; settings: 1uM
T14 construct: purchased DiscoveRx KINOMEscan

[18] = biological target: RPS6KA4(Kin.Dom.2-C-terminal) (Homo sapiens, UniProt O75676); assay: KinomeScan; format: binding; settings: 1uM
[19] = biological target: T15, GRK1 (Homo sapiens, UniProt Q15835); assay: KinomeScan; format: binding; settings: 1uM
T15 construct: purchased DiscoveRx KINOMEscan

[20] = biological target: T16, BRAF(V600E) (Homo sapiens, UniProt P15056, V600E); assay: KinomeScan; format: binding; settings: 1uM
T16 construct: purchased DiscoveRx KINOMEscan

[21] = biological target: T17, PIK3C2B (Homo sapiens, UniProt O00750); assay: KinomeScan; format: binding; settings: 1uM
T17 construct: purchased Invitrogen
T17 sequence (O00750 whole entry): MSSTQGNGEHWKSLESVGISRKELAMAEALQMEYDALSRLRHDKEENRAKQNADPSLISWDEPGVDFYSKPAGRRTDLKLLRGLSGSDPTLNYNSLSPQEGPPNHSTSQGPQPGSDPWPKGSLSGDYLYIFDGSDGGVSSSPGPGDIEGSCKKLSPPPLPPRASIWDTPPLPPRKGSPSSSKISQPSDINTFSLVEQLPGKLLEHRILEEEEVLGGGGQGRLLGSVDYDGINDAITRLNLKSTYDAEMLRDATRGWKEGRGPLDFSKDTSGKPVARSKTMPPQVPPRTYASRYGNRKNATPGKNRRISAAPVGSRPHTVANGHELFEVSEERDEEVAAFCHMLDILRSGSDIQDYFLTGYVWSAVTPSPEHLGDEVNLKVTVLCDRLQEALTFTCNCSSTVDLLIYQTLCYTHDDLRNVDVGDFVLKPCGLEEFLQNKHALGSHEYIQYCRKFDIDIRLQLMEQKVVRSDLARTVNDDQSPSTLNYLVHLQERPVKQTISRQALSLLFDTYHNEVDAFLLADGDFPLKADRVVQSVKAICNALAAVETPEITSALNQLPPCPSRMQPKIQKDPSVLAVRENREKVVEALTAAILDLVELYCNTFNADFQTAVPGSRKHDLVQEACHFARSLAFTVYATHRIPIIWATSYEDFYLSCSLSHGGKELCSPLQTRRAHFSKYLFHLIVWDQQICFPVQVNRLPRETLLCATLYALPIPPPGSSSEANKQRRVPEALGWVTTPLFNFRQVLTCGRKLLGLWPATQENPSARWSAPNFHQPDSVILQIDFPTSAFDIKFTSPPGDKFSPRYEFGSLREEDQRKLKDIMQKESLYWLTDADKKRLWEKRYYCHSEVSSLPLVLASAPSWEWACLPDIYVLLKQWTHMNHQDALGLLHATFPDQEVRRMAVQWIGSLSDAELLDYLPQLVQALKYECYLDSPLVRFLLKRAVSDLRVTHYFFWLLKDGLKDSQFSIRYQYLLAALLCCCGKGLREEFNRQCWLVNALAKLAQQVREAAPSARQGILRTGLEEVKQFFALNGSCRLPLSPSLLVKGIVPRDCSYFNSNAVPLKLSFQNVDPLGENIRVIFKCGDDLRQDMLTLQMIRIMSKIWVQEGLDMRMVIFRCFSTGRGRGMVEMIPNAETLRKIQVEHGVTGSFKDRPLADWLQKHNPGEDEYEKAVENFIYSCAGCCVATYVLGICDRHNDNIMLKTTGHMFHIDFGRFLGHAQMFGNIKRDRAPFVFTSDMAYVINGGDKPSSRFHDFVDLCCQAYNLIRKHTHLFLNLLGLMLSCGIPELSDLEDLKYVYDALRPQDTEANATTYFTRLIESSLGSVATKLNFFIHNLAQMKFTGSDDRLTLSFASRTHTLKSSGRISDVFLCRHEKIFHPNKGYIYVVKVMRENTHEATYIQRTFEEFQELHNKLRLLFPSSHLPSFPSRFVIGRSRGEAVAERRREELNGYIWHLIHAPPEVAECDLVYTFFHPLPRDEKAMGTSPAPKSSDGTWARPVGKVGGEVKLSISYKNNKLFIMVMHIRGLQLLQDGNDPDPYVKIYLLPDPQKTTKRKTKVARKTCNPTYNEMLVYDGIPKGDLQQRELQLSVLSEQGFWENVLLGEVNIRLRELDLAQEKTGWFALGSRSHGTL

[22] = biological target: T18, ASK1 (Homo sapiens, UniProt Q99683); assay: KinomeScan; format: binding; settings: 1uM
T18 construct: purchased DiscoveRx KINOMEscan

[23] = biological target: T19, SGK3 (Homo sapiens, UniProt Q96BR1); assay: KinomeScan; format: binding; settings: 1uM
T19 construct: purchased DiscoveRx KINOMEscan

[24] = biological target: T20, PKAC-beta (Homo sapiens, UniProt P22694); assay: KinomeScan; format: binding; settings: 1uM
T20 construct: purchased DiscoveRx KINOMEscan

[25] = biological target: T21, WEE2 (Homo sapiens, UniProt P0C1S8); assay: KinomeScan; format: binding; settings: 1uM
T21 construct: purchased DiscoveRx KINOMEscan

[26] = biological target: T22, KIT(A829P) (Homo sapiens, UniProt P10721, A829P); assay: KinomeScan; format: binding; settings: 1uM
T22 construct: purchased DiscoveRx KINOMEscan
T22 sequence (P10721 26-976 A829P): as the sequence (P10721 26-976 D816V) above, with V791D, A804P counted along it

[27] = biological target: T23, p38-beta (Homo sapiens, UniProt Q15759); assay: KinomeScan; format: binding; settings: 1uM
T23 construct: purchased DiscoveRx KINOMEscan
T23 sequence (Q15759 whole entry): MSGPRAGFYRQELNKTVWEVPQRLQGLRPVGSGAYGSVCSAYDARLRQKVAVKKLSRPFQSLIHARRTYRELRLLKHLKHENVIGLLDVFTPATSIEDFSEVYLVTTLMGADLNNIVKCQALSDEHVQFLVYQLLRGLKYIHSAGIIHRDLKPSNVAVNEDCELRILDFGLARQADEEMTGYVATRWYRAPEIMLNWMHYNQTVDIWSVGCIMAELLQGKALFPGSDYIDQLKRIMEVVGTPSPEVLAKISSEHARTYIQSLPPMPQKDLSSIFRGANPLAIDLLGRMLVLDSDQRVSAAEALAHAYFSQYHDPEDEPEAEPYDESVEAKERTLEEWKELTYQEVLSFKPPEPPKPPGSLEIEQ

[28] = biological target: T24, MET (Homo sapiens, UniProt P08581); assay: KinomeScan; format: binding; settings: 1uM
T24 construct: purchased DiscoveRx KINOMEscan

[29] = biological target: T25, VEGFR2 (Homo sapiens, UniProt P35968); assay: KinomeScan; format: binding; settings: 1uM
T25 construct: purchased DiscoveRx KINOMEscan

[30] = biological target: T26, TTK (Homo sapiens, UniProt P33981); assay: KinomeScan; format: binding; settings: 1uM
T26 construct: purchased DiscoveRx KINOMEscan
T26 sequence (P33981 whole entry): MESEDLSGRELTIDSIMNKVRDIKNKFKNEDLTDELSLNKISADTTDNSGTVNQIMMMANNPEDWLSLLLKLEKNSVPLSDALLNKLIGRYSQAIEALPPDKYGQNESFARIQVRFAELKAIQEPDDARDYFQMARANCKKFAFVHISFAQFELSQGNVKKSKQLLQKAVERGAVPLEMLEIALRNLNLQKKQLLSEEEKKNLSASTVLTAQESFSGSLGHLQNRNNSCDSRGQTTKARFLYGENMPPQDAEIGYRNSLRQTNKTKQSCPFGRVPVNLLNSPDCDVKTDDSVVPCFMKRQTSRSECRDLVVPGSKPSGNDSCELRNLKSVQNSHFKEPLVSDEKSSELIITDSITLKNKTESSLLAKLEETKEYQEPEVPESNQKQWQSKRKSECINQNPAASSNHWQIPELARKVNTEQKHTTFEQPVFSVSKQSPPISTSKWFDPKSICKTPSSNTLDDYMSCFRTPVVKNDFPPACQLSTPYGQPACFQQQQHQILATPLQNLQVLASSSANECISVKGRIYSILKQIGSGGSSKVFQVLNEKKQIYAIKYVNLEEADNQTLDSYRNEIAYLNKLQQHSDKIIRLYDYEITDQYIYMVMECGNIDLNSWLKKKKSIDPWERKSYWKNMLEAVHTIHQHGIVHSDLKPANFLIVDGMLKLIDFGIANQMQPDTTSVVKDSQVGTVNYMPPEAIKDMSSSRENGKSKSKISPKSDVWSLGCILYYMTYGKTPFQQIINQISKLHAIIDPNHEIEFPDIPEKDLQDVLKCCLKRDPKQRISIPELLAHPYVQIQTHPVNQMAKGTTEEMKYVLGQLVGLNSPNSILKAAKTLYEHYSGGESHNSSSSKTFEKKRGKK

[31] = biological target: T27, AKT2 (Homo sapiens, UniProt P31751); assay: KinomeScan; format: binding; settings: 1uM
T27 construct: purchased DiscoveRx KINOMEscan

[32] = biological target: T28, FGFR4 (Homo sapiens, UniProt P22455); assay: KinomeScan; format: binding; settings: 1uM
T28 construct: purchased DiscoveRx KINOMEscan

[33] = biological target: T29, PHKG2 (Homo sapiens, UniProt P15735); assay: KinomeScan; format: binding; settings: 1uM
T29 construct: purchased DiscoveRx KINOMEscan

[34] = biological target: T30, CDC2L1 (Homo sapiens, UniProt P21127); assay: KinomeScan; format: binding; settings: 1uM
T30 construct: purchased DiscoveRx KINOMEscan

[35] = biological target: T31, PAK3 (Homo sapiens, UniProt O75914); assay: KinomeScan; format: binding; settings: 1uM
T31 construct: purchased DiscoveRx KINOMEscan
T31 sequence (O75914 whole entry): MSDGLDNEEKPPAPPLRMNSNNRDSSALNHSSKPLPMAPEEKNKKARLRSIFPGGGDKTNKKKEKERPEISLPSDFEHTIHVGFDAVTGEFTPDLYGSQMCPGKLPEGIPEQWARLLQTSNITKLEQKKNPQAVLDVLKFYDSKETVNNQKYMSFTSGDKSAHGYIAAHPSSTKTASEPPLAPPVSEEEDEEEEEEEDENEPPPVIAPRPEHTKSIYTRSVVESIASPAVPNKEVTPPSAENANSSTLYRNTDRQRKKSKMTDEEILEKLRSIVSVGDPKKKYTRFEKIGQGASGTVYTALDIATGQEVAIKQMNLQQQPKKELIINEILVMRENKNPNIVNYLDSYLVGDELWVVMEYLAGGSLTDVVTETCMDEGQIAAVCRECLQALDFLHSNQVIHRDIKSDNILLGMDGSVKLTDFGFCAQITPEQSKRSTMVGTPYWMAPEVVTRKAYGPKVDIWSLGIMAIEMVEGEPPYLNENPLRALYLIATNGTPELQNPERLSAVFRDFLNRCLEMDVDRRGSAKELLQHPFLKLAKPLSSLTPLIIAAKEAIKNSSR

[36] = biological target: T32, MAP3K2 (Homo sapiens, UniProt Q9Y2U5); assay: KinomeScan; format: binding; settings: 1uM
T32 construct: purchased DiscoveRx KINOMEscan

[37] = biological target: T33, FLT4 (Homo sapiens, UniProt P35916); assay: KinomeScan; format: binding; settings: 1uM
T33 construct: purchased DiscoveRx KINOMEscan

[38] = biological target: T34, CAMKK1 (Homo sapiens, UniProt Q8N5S9); assay: KinomeScan; format: binding; settings: 1uM
T34 construct: purchased DiscoveRx KINOMEscan

[39] = biological target: T35, TNNI3K (Homo sapiens, UniProt Q59H18); assay: KinomeScan; format: binding; settings: 1uM
T35 construct: purchased DiscoveRx KINOMEscan

[40] = biological target: T36, NDR1 (Homo sapiens, UniProt Q15208); assay: KinomeScan; format: binding; settings: 1uM
T36 construct: purchased DiscoveRx KINOMEscan

[41] = biological target: T37, CDKL2 (Homo sapiens, UniProt Q92772); assay: KinomeScan; format: binding; settings: 1uM
T37 construct: purchased DiscoveRx KINOMEscan

T2 sequence (Q9NWZ3 whole entry): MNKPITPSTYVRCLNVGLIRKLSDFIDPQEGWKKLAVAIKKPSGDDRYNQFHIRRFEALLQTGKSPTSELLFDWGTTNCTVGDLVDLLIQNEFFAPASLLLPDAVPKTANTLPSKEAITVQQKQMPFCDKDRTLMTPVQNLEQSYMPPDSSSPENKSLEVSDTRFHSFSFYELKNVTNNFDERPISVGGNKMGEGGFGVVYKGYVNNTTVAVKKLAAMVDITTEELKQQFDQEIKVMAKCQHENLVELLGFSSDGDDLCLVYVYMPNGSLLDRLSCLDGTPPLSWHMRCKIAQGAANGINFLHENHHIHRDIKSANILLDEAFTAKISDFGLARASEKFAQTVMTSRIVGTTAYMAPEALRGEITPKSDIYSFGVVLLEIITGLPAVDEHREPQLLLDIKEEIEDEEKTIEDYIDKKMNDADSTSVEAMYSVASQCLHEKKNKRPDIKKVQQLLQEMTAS

For Cc1nc(NC(=O)[C@@H](N)C(C)C)sc1-c1cnc(Cl)c(NS(=O)(=O)c2ccccc2)c1 [PI3KD-IN-015], which “KinomeScan PAK1” value [1] is on record?
The value was 100.

What about the “KinomeScan IRAK4” value [2] of the same compound?
The value was 67.

What about the “KinomeScan KIT(D816V)” value [3] of the same compound?
Its value is 100.

And the “KinomeScan DAPK2” value [4]?
Its value is 97.

What about the “KinomeScan EGFR” value [5] of the same compound?
Its value is 100.

And the “KinomeScan CSNK2A1” value [6]?
Its value is 100.

What about the EC50 ([7]; Homo sapiens, CLL cell, HS505T (CLL) cells) of the same compound?
Its EC50 is < 1000 nM.

And the EC50 ([7]; Homo sapiens, HT (B-NHL) cells)?
Its EC50 is < 1000 nM.

And the EC50 ([7]; Homo sapiens, MOLM-13 (AML) cells)?
The EC50 was < 1000 nM.

What about the EC50 ([7]; MEC-1 (CLL) cells) of the same compound?
Its EC50 is < 1000 nM.

What about the EC50 ([7]; MEC-2 (CLL) cells) of the same compound?
Its EC50 is < 1000 nM.

What about the EC50 ([7]; Namalwa (Burkitt Lymphoma) cells) of the same compound?
The EC50 was < 1000 nM.

And the Erk phosphorylation ([8]; MOLM13 and HT cells)?
Its Erk phosphorylation is “not in MOLM13 and HT”.

What about the Erk phosphorylation ([8]; Namalwa, MEC-1, MEC-2 and HS505T cells) of the same compound?
The Erk phosphorylation was “reduced”.

What about the “KinomeScan CAMK2B” value [9] of the same compound?
The value was 91.

What about the “KinomeScan PLK4” value [10] of the same compound?
The value was 99.

What about the “KinomeScan PRP4” value [11] of the same compound?
Its value is 93.

And the “KinomeScan TEC” value [12]?
The value was 100.

And the “KinomeScan EGFR(L747-T751del,Sins)” value [13]?
The value was 100.

And the “KinomeScan FLT3(R834Q)” value [14]?
The value was 84.

What about the “KinomeScan PKN1” value [15] of the same compound?
The value was 100.

And the “KinomeScan JAK3(JH1domain-catalytic)” value [16]?
The value was 98.

And the “KinomeScan MARK4” value [17]?
Its value is 100.

What about the “KinomeScan RPS6KA4(Kin.Dom.2-C-terminal)” value [18] of the same compound?
Its value is 83.

And the “KinomeScan GRK1” value [19]?
Its value is 99.

What about the “KinomeScan BRAF(V600E)” value [20] of the same compound?
The value was 100.

And the “KinomeScan PIK3C2B” value [21]?
The value was 2.2.

What about the “KinomeScan ASK1” value [22] of the same compound?
The value was 88.

What about the “KinomeScan SGK3” value [23] of the same compound?
Its value is 91.

And the “KinomeScan PKAC-beta” value [24]?
The value was 87.

And the “KinomeScan WEE2” value [25]?
Its value is 100.

And the “KinomeScan KIT(A829P)” value [26]?
Its value is 96.

What about the “KinomeScan p38-beta” value [27] of the same compound?
The value was 86.

And the “KinomeScan MET” value [28]?
The value was 100.

And the “KinomeScan VEGFR2” value [29]?
The value was 99.

And the “KinomeScan TTK” value [30]?
Its value is 96.

And the “KinomeScan AKT2” value [31]?
Its value is 86.

What about the “KinomeScan FGFR4” value [32] of the same compound?
Its value is 93.

And the “KinomeScan PHKG2” value [33]?
The value was 91.

And the “KinomeScan CDC2L1” value [34]?
Its value is 100.

And the “KinomeScan PAK3” value [35]?
The value was 92.

And the “KinomeScan MAP3K2” value [36]?
Its value is 100.

And the “KinomeScan FLT4” value [37]?
The value was 93.

And the “KinomeScan CAMKK1” value [38]?
The value was 100.

What about the “KinomeScan TNNI3K” value [39] of the same compound?
The value was 95.

What about the “KinomeScan NDR1” value [40] of the same compound?
The value was 100.

What about the “KinomeScan CDKL2” value [41] of the same compound?
Its value is 100.
